From patent US6828327B2, “Macroheterocylic compounds useful as kinase inhibitors” (Ortho-McNeil Pharmaceutical, Inc., priority 2000, dated 2004)
pIC50: −log10 of the molar value.

What was measured:
GSK 3-β = target: T1, GSK 3-β (Oryctolagus cuniculus, UniProt G1T8E2); test: Glycogen Synthase Kinase 3-β Assay; type: biochemical, rabbit; conditions: for GSK 3-β % @ 0.1 μM: at 0.1 μM; for GSK 3-β % @ 1 μM: at 1 μM; for pIC50: inhibition value, recombinant rabbit GSK 3-β, PPI-2 substrate
T1 construct: purchased New England Biolabs, Beverly Mass
T1 sequence (G1T8E2 1-432): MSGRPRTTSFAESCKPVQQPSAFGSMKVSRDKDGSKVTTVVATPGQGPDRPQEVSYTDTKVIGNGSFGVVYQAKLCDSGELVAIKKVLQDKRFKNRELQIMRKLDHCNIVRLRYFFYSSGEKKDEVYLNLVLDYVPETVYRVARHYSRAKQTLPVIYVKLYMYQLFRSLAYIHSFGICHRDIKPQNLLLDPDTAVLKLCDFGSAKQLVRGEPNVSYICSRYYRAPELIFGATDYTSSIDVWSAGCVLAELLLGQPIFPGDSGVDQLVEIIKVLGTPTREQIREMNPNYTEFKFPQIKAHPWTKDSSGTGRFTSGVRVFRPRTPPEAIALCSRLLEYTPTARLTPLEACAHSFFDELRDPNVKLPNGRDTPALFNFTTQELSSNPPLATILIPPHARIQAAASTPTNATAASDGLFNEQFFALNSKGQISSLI
Method: The inhibitory activity of a compound against Glycogen Synthase Kinase 3-β (GSK 3-β) activity was assessed using a recombinant rabbit GSK 3-β according to the procedure below.
The mixture was reacted for 90 minutes at 30° C. to allow phosphorylation of the PPI-2 protein and then the protein in the reaction was precipitated using 10% trichloroacetic acid (TCA). The precipitated protein was collected on filter plates (MultiScreen-DV, Millipore, Bedford Mass.), which were subsequently washed. Finally, the radioactivity was quantified using a TopCount Scintillation Counter (Packard, Meridian Conn.). […] Staurosporine or Valproate (both available from several commercial sources), known inhibitors of GSK-3-β, were used as a positive control for screening.

PKC-βII = target: T2, PKC-βII (Homo sapiens, UniProt P05771); test: Protein Kinase C Scintillation Proximity Assay (SPA), PKC-βII; type: biochemical; conditions: inhibition value, recombinant human isozyme, 1 μM ATP
T2 construct: purchased PanVera, Madison Wis; host or cells: baculovirus expression vector
T2 sequence (P05771 1-673 isoform P05771-2): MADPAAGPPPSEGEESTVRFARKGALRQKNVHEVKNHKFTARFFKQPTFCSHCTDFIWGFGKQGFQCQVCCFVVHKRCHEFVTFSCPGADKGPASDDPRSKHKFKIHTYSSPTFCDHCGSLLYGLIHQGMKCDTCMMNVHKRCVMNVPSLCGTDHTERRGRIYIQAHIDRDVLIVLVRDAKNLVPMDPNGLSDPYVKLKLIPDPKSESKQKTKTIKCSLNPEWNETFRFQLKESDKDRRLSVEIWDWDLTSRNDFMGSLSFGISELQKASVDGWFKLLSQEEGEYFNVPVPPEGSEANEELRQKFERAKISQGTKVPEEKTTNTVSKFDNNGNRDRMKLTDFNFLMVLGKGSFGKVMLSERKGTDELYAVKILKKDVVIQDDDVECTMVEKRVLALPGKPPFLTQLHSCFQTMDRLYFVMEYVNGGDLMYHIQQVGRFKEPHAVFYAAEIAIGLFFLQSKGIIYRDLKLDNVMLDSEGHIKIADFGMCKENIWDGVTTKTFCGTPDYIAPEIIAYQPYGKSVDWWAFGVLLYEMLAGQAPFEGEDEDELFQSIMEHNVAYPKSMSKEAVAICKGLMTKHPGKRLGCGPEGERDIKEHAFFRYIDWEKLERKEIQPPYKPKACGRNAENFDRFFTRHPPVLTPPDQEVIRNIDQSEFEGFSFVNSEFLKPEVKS
Method: (§1) The binding activity of a compound for Protein Kinase C (PKC) was assessed using a homogeneous Scintillation Proximity Assay according to the procedure below.
(§2) The different human PKC isozymes (were obtained from PanVera, Madison Wis. and had been prepared as recombinant enzymes produced from a baculovirus expression vector) were added to a reaction mixture containing a test compound, 20 mM HEPES (pH 7.4), 100 μM CaCl2, 10 mM MgCl2, 100 μg/mL phosphatidylserine, 20 μg/mL diacylglycerol, 1 μM ATP, 0.8 μCi (^33P)ATP, and 5 μg/mL biotinylated substrate peptide (Jing Zhao et al., J. Bio. Chem., 1998, 273, 23072). The reaction was incubated for 15 min at 30° C. Reactions were terminated by the addition of streptavidin-coated SPA beads (Amersham) in a solution containing 1 mM EGTA, 10 mM EDTA and 100 μM ATP. Beads were allowed to settle overnight and the plates read in a Wallac MICROBETA scintillation counter (PerkinElmer Life sciences, Wellesley, Mass.).
(§3) Values for inhibition of various PKC isozymes and GSK 3-β by certain compounds of the invention tested in the PKC SPA and GSK 3-β assays are shown in Table 1.

PKC-γ = target: T3, PKC-γ (Homo sapiens, UniProt P05129); test: Protein Kinase C Scintillation Proximity Assay (SPA), PKC-γ; type: biochemical; conditions: inhibition value, recombinant human isozyme, 1 μM ATP
T3 construct: purchased PanVera, Madison Wis; host or cells: baculovirus expression vector
Method: as §1, §2, §3

PKC-βI = target: T4, PKC-βI (Homo sapiens, UniProt P05771); test: Protein Kinase C Scintillation Proximity Assay (SPA), PKC-βI; type: biochemical; conditions: inhibition value, recombinant human isozyme, 1 μM ATP
T4 construct: purchased PanVera, Madison Wis; host or cells: baculovirus expression vector
T4 sequence (P05771 whole entry): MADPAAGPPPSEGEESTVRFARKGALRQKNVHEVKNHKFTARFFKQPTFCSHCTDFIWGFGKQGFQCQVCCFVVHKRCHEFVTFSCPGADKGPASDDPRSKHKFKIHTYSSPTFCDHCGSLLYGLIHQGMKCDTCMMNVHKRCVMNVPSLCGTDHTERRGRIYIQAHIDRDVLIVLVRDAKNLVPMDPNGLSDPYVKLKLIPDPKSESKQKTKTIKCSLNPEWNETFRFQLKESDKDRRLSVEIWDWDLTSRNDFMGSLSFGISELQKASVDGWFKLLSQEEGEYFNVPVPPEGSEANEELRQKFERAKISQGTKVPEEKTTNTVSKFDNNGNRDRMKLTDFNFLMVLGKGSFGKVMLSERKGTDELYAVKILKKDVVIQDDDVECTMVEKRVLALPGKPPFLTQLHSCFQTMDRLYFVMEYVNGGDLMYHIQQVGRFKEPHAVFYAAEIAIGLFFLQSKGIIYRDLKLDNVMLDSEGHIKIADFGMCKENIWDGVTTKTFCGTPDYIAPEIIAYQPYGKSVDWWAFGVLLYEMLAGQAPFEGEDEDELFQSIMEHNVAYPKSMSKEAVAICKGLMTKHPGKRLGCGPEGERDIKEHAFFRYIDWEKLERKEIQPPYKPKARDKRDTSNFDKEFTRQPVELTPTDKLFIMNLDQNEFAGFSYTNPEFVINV
Method: as §1, §2, §3

PKC α = PKC α (Homo sapiens, UniProt P17252); test: Protein Kinase C Scintillation Proximity Assay (SPA), PKC-α; type: biochemical; set-up: purchased PanVera, Madison Wis; host or cells: baculovirus expression vector; conditions: inhibition value, recombinant human isozyme, 1 μM ATP
Method: as §1
The reaction was incubated for 15 min at 30° C. Reactions were terminated by the addition of streptavidin-coated SPA beads (Amersham) in a solution containing 1 mM EGTA, 10 mM EDTA and 100 μM ATP. Beads were allowed to settle overnight and the plates read in a Wallac MICROBETA scintillation counter (PerkinElmer Life sciences, Wellesley, Mass.).

L6 muscle cells = test: Cell-Based GSK 3-β Assay (glycogen content of L6 muscle cells); conditions: for 14C-Glucose Incorporation (dpm): L6 cells, 2 hours
Method: Glycogen content of L6 muscle cells was measured according to the method described in Berger and Hayes, Anal. Biochem., 1998, 261, 159-163.
Briefly, L6 cells were serum starved overnight in alpha-MEM containing 0.1%. On the following day, cells were washed three times with 300 μL KRPH buffer (150 mM NaCl, 5 mM KCl, 2.9 mM Na2HPO4, 1.25 mM MgSO4, 1.2 mM CaCl2, 10 mM HEPES, pH 7.4) and labeled with 200 μL alpha-MEM containing 5.5 mM ^14C-Glucose (0.1 μCi) in the presence of vehicle (DMSO) or compounds. After 2 hours, cells were washed three times with ice-cold PBS and glycogen was precipitated for 2 hours using ice-cold 66% EtOH. Precipitated glycogen was then washed three times with ice-cold 66% EtOH and ^14C-glycogen was quantified using a TopCount (Packard).
Compounds were tested in separate experiments at the dose levels shown. Where shown, the 0.0 μM dose was used as a control.

SMILES	pIC50 (PKC-βII)	pIC50 (PKC-γ)	pIC50 (GSK 3-β)	pIC50 (PKC α)	also measured
CN1CCOCCn2cc(c3ccccc32)C2=C(C(=O)NC2=O)c2nn(c3ccccc23)CCOCC1 [Cpd 16]	7.20	–	–	–	GSK 3-β % @ 0.1 μM (GSK 3-β): 37% @ 0.1 μM
CCN1CCCCCn2cc(c3cccnc32)C2=C(C(=O)NC2=O)c2cn(c3ncccc23)CCCC1 [Cpd 23]	–	–	–	–	GSK 3-β % @ 1 μM (GSK 3-β): 46% @ 1 μM
O=C1NC(=O)C2=C1c1cn(c3ccccc13)CCOCCOCCOCCOCCOCCn1cc2c2ccccc21 [Cpd 7]	6.55	5.49	7.48	5.59	pIC50 (PKC-βI): 5.51
O=C1NC(=O)C2=C1c1cn(c3ccccc13)Cc1cccc(c1)Cn1cc2c2cccnc21 [Cpd 8]	6.54	6.11	6.63	5.82	pIC50 (PKC-βI): 5.75
O=C1NC(=O)C2=C1c1cn(c3ccccc13)CCOCCN(CCO)CCOCCn1cc2c2ccccc21 [Cpd 30]	7.96	–	7.19	–	–
CN1CCCn2cc(c3ccccc32)C2=C(C(=O)NC2=O)c2cn(c3ccccc23)CCOCCOCC1 [Cpd 31]	8.15	7.62	–	7.85	–
COCCN1CCOCCn2cc(c3ccccc32)C2=C(C(=O)NC2=O)c2nn(c3ccccc23)CCOCC1 [Cpd 29]	6.43	–	–	–	GSK 3-β % @ 0.1 μM (GSK 3-β): 30% @ 0.1 μM
O=C1NC(=O)C2=C1c1cn(c3ccccc13)Cc1cccc(n1)Cn1cc2c2cccnc21 [Cpd 9]	7.46	6.64	6.79	6.50	pIC50 (PKC-βI): 6.47
CCN1CCCCCn2cc(c3cccnc32)C2=C(C(=O)NC2=O)c2cn(c3ncccc23)CCCCC1 [Cpd 21]	–	–	5.84	–	–
CN1CCOCCn2cc(c3ccccc32)C2=C(C(=O)NC2=O)c2cn(c3ccccc23)CCOCC1 [Cpd 13]	7.40	6.43	–	7.30	–
O=C1NC(=O)C2=C1c1cn(c3ncccc13)CCOCCOCCOCCOCCOCCn1cc2c2cccnc21 [Cpd 3]	< 4.00	< 4.00	7.48	< 4.00	pIC50 (PKC-βI): < 4.00
O=C1CCCCCCn2cc(c3cccnc32)C2=C(C(=O)NC2=O)c2cn(c3ncccc23)CCCC1 [Cpd 25]	–	–	7.10	–	–
O=C1NC(=O)C2=C1c1cn(c3ncccc13)CCCCc1cccc(n1)CCCCn1cc2c2cccnc21 [Cpd 24]	–	–	6.68	–	–
O=C1NC(=O)C2=C1c1cn(c3ncccc13)CCCCCNCCCCn1cc2c2cccnc21 [Cpd 22]	–	–	–	–	GSK 3-β % @ 1 μM (GSK 3-β): 30% @ 1 μM
CCN1CCOCCn2cc(c3ccccc32)C2=C(C(=O)NC2=O)c2cn(c3ccccc23)CCOCC1 [Cpd 12]	8.10	6.82	7.48	7.70	–
O=C1NC(=O)C2=C1c1cn(c3ncccc13)CCOCCOCCn1cc2c2cccnc21 [Cpd 28]	–	–	–	–	GSK 3-β % @ 0.5 μM (GSK 3-β; at 0.5 μM): 48% @ 0.5 μM
O=C1NC(=O)C2=C1c1cn(c3ncccc13)C[C@H](O)CCCCCC[C@@H](O)Cn1cc2c2cccnc21 [Cpd 27]	–	–	5.93	–	–
O=C1CCCCn2cc(c3cccnc32)C2=C(C(=O)NC2=O)c2cn(c3ncccc23)CCCC1 [Cpd 26]	–	–	7.05	–	–
CCN1CCOCCn2cc(c3cccnc32)C2=C(C(=O)NC2=O)c2cn(c3ncccc23)CCOCC1 [Cpd 18]	–	–	5.04	–	–
CC(C)N1CCOCCn2cc(c3ccccc32)C2=C(C(=O)NC2=O)c2cn(c3ccccc23)CCOCC1 [Cpd 14]	7.82	7.47	7.12	7.72	–
CCN1CCOCCn2cc(c3ccccc32)C2=C(C(=O)NC2=O)c2nn(c3ccccc23)CCOCC1 [Cpd 17]	6.41	–	–	–	GSK 3-β % @ 0.2 μM (GSK 3-β; at 0.2 μM): 31% @ 0.2 μM
O=C1NC(=O)C2=C1c1cn(c3ccccc13)CCOCCOCCOCCn1cc2c2ccccc21 [Cpd 5]	7.80	5.87	7.31	6.39	pIC50 (PKC-βI): 6.46; 14C-Glucose Incorporation (dpm) (L6 muscle cells; dose 0.01 μM): 2884 dpm; 14C-Glucose Incorporation (dpm) (L6 muscle cells; dose 0.1 μM): 2988 dpm; 14C-Glucose Incorporation (dpm) (L6 muscle cells; dose 0.3 μM): 3339 dpm; 14C-Glucose Incorporation (dpm) (L6 muscle cells; dose 3 μM, 0.0 μM control Cpd 1 1640, Cpd 2 2078): 3438 dpm; 14C-Glucose Incorporation (dpm) (L6 muscle cells; dose 10 μM, 0.0 μM control Cpd 1 1640, Cpd 2 2078): 4700 dpm; glycogen synthesis in L6 skeletal muscle cells (L6 muscle cells; upon exposure to compound, result in words): increased glycogen synthesis
O=C1NC(=O)C2=C1c1cn(c3ccccc13)CCOCCOCCn1cc2c2ccccc21 [Cpd 4]	7.00	5.46	6.99	5.91	pIC50 (PKC-βI): 5.80
CN1CCN(C)CCn2cc(c3ccccc32)C2=C(C(=O)NC2=O)c2cn(c3ccccc23)CCN(C)CC1 [Cpd 15]	7.57	7.66	7.03	7.38	–
O=C1NC(=O)C2=C1c1cn(c3ncccc13)CCCCCNCCCCCn1cc2c2cccnc21 [Cpd 20]	–	–	6.21	–	–
O=C1NC(=O)C2=C1c1cn(c3ccccc13)CCOCCOCCOCCOCCn1cc2c2ccccc21 [Cpd 6]	6.67	5.40	7.35	5.59	pIC50 (PKC-βI): 5.83
O=C1NC(=O)C2=C1c1cn(c3ncccc13)CCOCCSCCOCCn1cc2c2cccnc21 [Cpd 19]	–	–	6.96	–	–
